The test system of data set [1] is Human B lymphoma cell Ramos (Burkitt lymphoma). The experiment in a line: Inhibition of proliferation of Ramos cells in vitro (MTT, 72 h). Type of data set: cell-based. As for the experimental part: (§1) Cell suspensions (Ramos: 10000 cells/well; TMD8: 12000 cells/well) were seeded in a 96-well plate, placed in an incubator for 2 hours at 37° C., after the cell state was stabilized, different concentrations of tested compounds were added to each well (each concentration was set with 3 duplicate wells), and blank control (only containing culture solution, but not containing cells), negative control (only adding cells, but not adding compounds) and positive compound control were set at the same time. After 72 h treatment, 20 μL MTT (5 mg/ml) was added to each well and incubated for 4 h at 37° C. 100 μL triple solution (10% SDS, 5% isobutanol, 0.01 M HCl) was added and placed overnight at 37° C. The OD value was measured with microplate enzyme-labeled instrument SPECTRA MAX Plus 384 with adjustable wavelength at 570 nm.
(§2) The inhibition rate of the compound was obtained by the following formula: […]
(§3) The IC50 value was obtained by four-parameter regression using the software attached to the microplate reader.

The subject of data set [2] is Human diffuse large B lymphoma cell TMD8. The experiment in a line: Inhibition of proliferation of TMD8 cells in vitro (MTT, 72 h). Type of data set: cell-based. As for the experimental part: as §1, §2, §3
Data set [3] can be described thus: Further study of metabolism of earlier compounds. It counts as in vitro ADME. The settings on record: 4-position of terminal phenyl easy to be oxidized.
A further data set addresses BTK (Homo sapiens, UniProt Q06187). The settings on record: disclosed in patent CN108101905A; cited from earlier work.
The target of data set [4] is BTK tyrosine kinase protein (Homo sapiens, UniProt Q06187). In words: Inhibitory activity evaluation of Bruton kinase (BTK) at molecular level (ELISA). Type of data set: biochemical. The settings on record: ATP 5 μM.
Chain of BTK tyrosine kinase protein (Q06187 whole entry): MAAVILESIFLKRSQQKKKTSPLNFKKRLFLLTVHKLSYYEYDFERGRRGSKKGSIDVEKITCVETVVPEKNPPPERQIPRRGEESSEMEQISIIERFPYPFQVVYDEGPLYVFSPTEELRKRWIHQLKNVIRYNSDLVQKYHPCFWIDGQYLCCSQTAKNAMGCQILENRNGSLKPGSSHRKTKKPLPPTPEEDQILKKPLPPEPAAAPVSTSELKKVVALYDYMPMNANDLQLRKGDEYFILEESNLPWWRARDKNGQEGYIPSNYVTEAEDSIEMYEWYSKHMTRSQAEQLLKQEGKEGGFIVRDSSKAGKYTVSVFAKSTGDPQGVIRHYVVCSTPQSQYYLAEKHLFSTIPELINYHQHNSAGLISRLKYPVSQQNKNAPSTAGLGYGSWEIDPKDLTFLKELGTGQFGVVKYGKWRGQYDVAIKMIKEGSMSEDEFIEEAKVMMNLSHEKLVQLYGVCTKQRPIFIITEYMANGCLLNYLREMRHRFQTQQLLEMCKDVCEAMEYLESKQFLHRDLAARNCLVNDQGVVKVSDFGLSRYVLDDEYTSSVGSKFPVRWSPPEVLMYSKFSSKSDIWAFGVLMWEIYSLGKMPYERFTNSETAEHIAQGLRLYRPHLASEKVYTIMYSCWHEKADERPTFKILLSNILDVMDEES
Procedure: The enzyme reaction substrate Poly (Glu, Tyr)4:1 was diluted with potassium-free PBS (10 mM sodium phosphate buffer, 150 mM NaCl, pH 7.2-7.4) to 20 μg/ml, and coated enzyme plate. After reacting at 37° C. for 12-16 hours, the plate was washed three times with 200 μL/well T-PBS (PBS containing 0.1% Tween-20) and dried in 37° C. oven for 1-2 hours. 49 μL/well ATP solution (final concentration was 5 μM) diluted with a reaction buffer (50 mM HEPES pH 7.4, 50 mM MgCl2, 0.5 mM MnCl2, 0.2 mM Na3VO4, 1 mM DTT) was firstly added into the substrate-coated plate. 1 μL compound to be tested (compound well) or DMSO with corresponding concentration (negative control well) was added into each well, and enzyme-free control well was set up for each experiment. Then 50 μL of BTK tyrosine kinase protein diluted with reaction buffer was added to start the reaction.
The above reaction system was placed in a shaking table (100 rpm) for 1 hour at 37° C., then the plate was washed with T-PBS for three times, and the primary antigen PY99 100 μL/well (Santa Cruz) was added, and the reaction was carried out in a shaking table for 0.5 hours at 37° C. […]
Data set [5] relates to human lymphoma TMD8 xenograft. In words: Anti-tumor activity in vivo, TMD8 xenograft tumor model. The arrangement: species or system Mice. The settings on record: for Tumor volume: 17th day, mean ± SEM. The method, then: (§4) • 1) Species: Mice • 2) Strain: CB-17 SCID • 3) Age and body weight: 6-8 weeks; 18-22 g • 4) Sex: Female • 5) Supplier: Beijing Vital River Laboratory Animal Technology Co., Ltd. REC-1 Xenograft Tumor Model • 1) Species: Mice • 2) Strain: BALB/c nude mice • 3) Age and body weight: 6-8 weeks; 17-20 g • 4) Sex: Female • 5) Supplier: Shanghai Lingchang Biotechnology Co., Ltd.
(§5) Conventional treatment was carried out twice a week. When the cell saturation was 80%-90%, the cells were collected, counted and inoculated.
Tumor cell inoculation: 0.2 mL 10×10^6 Human lymphoma TMD8 cells were subcutaneously inoculated into the right back of each nude mouse (PBS:Matrigel=1:1). When the average tumor volume reached 104 mm^3, group administration began. Each group of 6 mice was grouped according to the tumor volume by random grouping software based on Excel.
(§6) The health status and death status of animals were monitored every day. Routine examinations included observing the effects of tumor growth and drug treatment on daily behaviors of animals, such as behavioral activities, food intake and water intake (visual inspection only), weight change (weight measurement three times a week), appearance signs or other abnormal conditions. Based on the number of animals in each group, the number of animal deaths and side effects in each group were recorded.
(§7) Tumor measurement and experimental indexes: the experimental index was to investigate whether the tumor growth is inhibited, delayed or cured. The tumor diameter was measured with vernier caliper three times a week.
(§8) TGI (%), reflecting the tumor growth inhibition rate.
(§9) Relative tumor proliferation rate T/C (%): the calculation formula is as follows:
(§10) T/C %=TRTV/CRTV×100% (TRTV: Relative tumor volume in treatment group; CRTV: Relative tumor volume in negative control group).
(§11) Statistical analysis: Statistical analysis, including the mean value of tumor volume and standard error (SEM) at each time point in each group. […] Three or more groups were compared with one-way ANOVA. If there were significant differences in F values, Games-Howell method was used to test. All data were analyzed with SPSS 17.0. p<0.05 was considered as significant difference.

Data set [6] can be described thus: Oral bioavailability of earlier compound. Particulars: in vivo.
Data set [7] relates to human mantle cell lymphoma REC-1 xenograft. The experiment in a line: Anti-tumor activity in vivo, REC-1 xenograft tumor model. The arrangement: species or system Mice. The settings on record: for T/C (%) / TGI (%): day 15; for Tumor volume (mm^3) (Day 15): day 15, mean ± SEM. The method, then:
as §4, §5
0.2 mL 5×10^6 REC-1 cells were subcutaneously inoculated into the right back of each nude mouse (PBS:Matrigel=1:1). When the average tumor volume reached 100 mm^3, group administration began. Each group of 6 mice was grouped according to the tumor volume by random grouping software based on Excel.
as §6, §7, §8, §9, §10, §11

The nature of the next data set: in vivo. The settings on record: male, Sprague-Dawley (SD), rat. As for the experimental part: Fourteen SD rats, male, weighing 200-220 g, were randomly divided into 4 groups (4/3 rats in each group) and given the tested compounds by intragastric administration and intravenous administration respectively.
0.5% sodium carboxymethyl cellulose (CMC-Na) containing 1% Tween 80 was formulated for intragastric administration, and 5% DMSO/5% Tween 80/90% normal saline was formulated for intravenous administration.
Fasting for 12 hours and drinking water freely before the test. Eat uniformly 2 hours after administration.
At the above set time point, 0.3 ml of venous blood was taken through the posterior venous plexus of the rat eyeball, placed in a heparinized test tube, centrifuged at 11000 rpm for 5 minutes, and the plasma was separated, frozen in the fridge at −20° C.
The concentration of S17016 in rat plasma was determined by LC/MS/MS.

Data set [8] is described as follows: Metabolic stability test in human liver microsomes. Type of data set: in vitro ADME. The settings on record: HLM, 0.1 μM drug, 0.33 mg/ml microsomes, NADPH. The method, then:
(§12) Liver microsomes were incubated in a 96-well plate, and the volume of each incubated system was 450 μL with a medium of 0.1 M Tris buffer (pH 7.4), including liver microsomes with a final concentration of 0.33 mg/ml, 0.1 μM of tested drugs and 5.0 mM MgCl2, 0.01% DMSO, 0.005% BSA and 1.0 mM NADPH. Incubated at 37° C. for 10 min, NADPH was added to initiate the reaction, and 50 μL was taken out and added with the same volume of methanol to terminate the reaction after 0, 7, 17, 30 and 60 min, respectively.
(§13) S17016 in incubated samples was determined by LC/MS/MS with electrospray ionization (ESI) as the ion source and multi-reaction monitoring (MRM) as the scanning mode.
(§14) The experimental results of metabolic stability in vitro of S17016 in different liver microsomes (HLM: human liver microsomes; RLM: rat liver microsomes; MLM: mouse liver microsomes) were shown in Table 9 and FIG. 3 below.

The nature of data set [9]: Metabolic stability test in rat liver microsomes. Type of data set: in vitro ADME. The settings on record: RLM, 0.1 μM drug, 0.33 mg/ml microsomes, NADPH. As for the experimental part:
as §12, §13, §14

Data set [10] can be described thus: Metabolic stability test in mouse liver microsomes. Type of data set: in vitro ADME. Particulars: MLM, 0.1 μM drug, 0.33 mg/ml microsomes, NADPH. The method, then: as §12, §13, §14

Where “and” joins values, the source holds several entries; their conditions need not be identical. Equal values may be shown once.

Chain of BTK (Q06187 whole entry): as above

Turning to `CC#CC(=O)N1CCC[C@H]1c1nc(-c2ccc(C(=O)Nc3ccccn3)cc2)c2c(N)nccn12` [Acalabrutinib], the IC50 in data set [1] came out at 38200 nM; in data set [2] it was 23 nM.

Consider `C=CC(=O)N[C@@H]1CCc2c(-c3ccc(Oc4ccccc4)cc3)c3c(N)ncnc3n2C1` [Compound S1], for which the IC50 in [1] is 94700 nM; in data set [2], 6 nM. In data set [3], the stability in metabolism entry was “unstable in metabolism”. Moreover, the BTK inhibitory activity result at BTK is “high BTK inhibitory activity”.

With `CC#CC(=O)N[C@@H]1CCc2c(-c3ccc(Oc4ccccc4)cc3)c3c(N)ncnc3n2C1` [Compound S10], the figures for the half-inhibitory concentration (IC50) in data set [4], in data set [1] and in data set [2] were < 10 nM, 8720 nM and 30 nM, respectively. Besides, the stability in metabolism entry in [3] is on record as “unstable in metabolism”. In addition, the BTK inhibitory activity result at BTK is recorded as “high BTK inhibitory activity”.

With `C=CC(=O)NC1Cn2c(c(-c3ccc(Oc4ccccc4)cc3)c3c(N)ncnc32)C1=C` (stereo not drawn) [Compound S18s, reference compound], the values for the 50% inhibitory concentration (IC50) in data set [1] and in data set [2] were 5040 nM and 16 nM, respectively. For the same compound, the “T/C (%)” value in data set [5] (15 mg/kg, day 0) amounted to 100%; in data set [5] (15 mg/kg, day 6), 53.51%; in data set [5] (15 mg/kg, day 8), 47.28%; in data set [5] (15 mg/kg, day 11), 37.73%; in [5] (15 mg/kg, day 13) it was 34.97%. Further, the stability in metabolism entry in data set [3] is on record as “unstable in metabolism”.

`C=C1c2c(-c3ccc(Oc4ccccc4)cc3)c3c(N)ncnc3n2CC1NC(=O)C#CC` (stereo not drawn) [Compound S19s] registered a 50% inhibitory concentration (IC50) in [2] of 17 nM. The stability in metabolism result in [3] was “unstable in metabolism”.

Regarding `C=CC(=O)NC1Cn2c(c(-c3ccc(C(=O)Nc4ccccn4)cc3)c3c(N)ncnc32)C1=C` (stereo not drawn) [Compound S20s], the IC50 in [1] stood at 14300 nM; in data set [2], 4 nM. For the same compound, the oral bioavailability entry in [6] is given as “not ideal”.

On to `C=C1c2c(-c3ccc(C(=O)Nc4ccccn4)cc3)c3c(N)ncnc3n2C[C@H]1NC(=O)C#CC` [Compound S17016], for which the 50% inhibitory concentration (IC50) in [4] is 0.5 nM; in [1] it was 3150 nM; in data set [2], 3 nM. In addition, the “T/C (%)” value is on record as 30% in [7] (15 mg/kg); 19% in data set [7] (30 mg/kg); 49.27% in [5] (5 mg/kg, day 17); 100% in data set [5] (10 mg/kg, day 0); 48.31% in data set [5] (10 mg/kg, day 5); 39.22% in data set [5] (10 mg/kg, day 8). Moreover, the “T/C (%)” value in data set [5] (10 mg/kg, day 10) is on record as 34.25%; in data set [5] (10 mg/kg, day 12) it was 30.90%; in data set [5] (10 mg/kg, day 15), 30.56%; in data set [5] (10 mg/kg, day 17) it was 29.85%. Further, the “TGI (%)” value was found to be 73% in [7] (15 mg/kg); 83% in data set [7] (30 mg/kg); 53.78% in data set [5] (5 mg/kg, day 17); 74.35% in data set [5] (10 mg/kg, day 17). In addition, the “Tumor volume (mm^3) (Day 15)” value in data set [7] (15 mg/kg, 15 mg/kg) was 1034 mm^3 and 1034 ± 202 mm^3; in data set [7] (30 mg/kg, 30 mg/kg) it was 680 mm^3 and 680 ± 106 mm^3. The Tumor volume in data set [5] (5 mg/kg) is 912 mm^3 and 912 ± 114 mm^3; in [5] (10 mg/kg) it was 553 mm^3 and 553 ± 56 mm^3. The compound further registered a bioavailability in the data set “in vivo” (in vivo) of 24.8%. Further, the Vd in “in vivo” (in vivo, iv, 1 mg/kg) came to 0.221 L/kg. In addition, the clearance in the data set “in vivo” (in vivo, iv, 1 mg/kg) is 3.33 mL/min/kg. Further, the half-life in “in vivo” (in vivo, iv, 1 mg/kg) was 75.6 min. Also, the area under the curve (AUC) in “in vivo” (in vivo, po, 3 mg/kg) was found to be 3860 ng·h/mL. In addition, the concentration in “in vivo” (in vivo, po, 3 mg/kg) peaked (Cmax) at 2700 ng/mL. For the same compound, the time of peak concentration (Tmax) in “in vivo” (in vivo, po, 3 mg/kg) worked out at 15 min. Besides, the “Absolute value of peak area, M0: parent compound” value in data set [8] is on record as 20285; in [9] it was 12675; in data set [10], 19033. Further, the results for the “M0: parent compound, share of peak area” value in data set [8], in data set [9] and in data set [10] were “(97.45%)”, “(84.07%)” and “(97.82%)”, respectively.

Take `C=CC(=O)N1CCC[C@@H](n2nc(-c3ccc(Oc4ccccc4)cc3)c3c(N)ncnc32)C1` [Ibrutinib, reference compound]: the IC50 in data set [1] is 12900 nM; in data set [2] it was 5 nM. Besides, the “TGI (%)” value is on record as 64% in data set [7] (25 mg/kg) and 68.18% in [5] (25 mg/kg, day 17). Moreover, in data set [7] (25 mg/kg, 25 mg/kg), the “Tumor volume (mm^3) (Day 15)” value was 1323 mm^3 and 1323 ± 195 mm^3. Further, the Tumor volume in [5] (25 mg/kg) is 661 mm^3 and 661 ± 168 mm^3. Besides, in “in vivo” (plasma, oral, 3 mg/kg), the bioavailability was determined as 4%. For the same compound, in the data set “in vivo” (plasma, po, 3 mg/kg), the AUC was determined as 57 ng·h/mL.

The values above are taken from patent US12384795B2, “Pyrimido[5,4-b]pyrrolizin compound, optical isomer thereof, preparation method therefor and use thereof” (SHANGHAI INSTITUTE OF MATERIA MEDICA, CHINESE ACADEMY OF …, priority 2019, dated 2025).
